Patent US20060069132A1, “Azolecarboxamide herbicides” (priority 2004, published 2006)
Where two headings read alike, the source gives them in different places.

How the values were obtained:
[1] = system: wheat; assay: Test B postemergence herbicide test; assay type: in vivo, Triticum aestivum; conditions: Triticum aestivum, post-emergence, 336 h, read-out: Wheat plant response rating
Method in brief: (§1)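 Postemergence plants were sprayed with formulated test chemicals at 2 to 18 cm height (1- to 4-leaf stage); paddy species were grown to the 2-leaf stage. After 13 to 15 days in a greenhouse, injury was rated visually against untreated controls on a 0–100 scale (0 = no effect, 100 = complete control).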

[2] = system: corn; assay: Test B pre-/postemergence herbicide test; assay type: in vivo, Zea mays
Method in brief: (§2)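 Formulation: non-phytotoxic solvent mix with surfactant. Timing: preemergence on seed and postemergence on 2–18 cm plants, applied concurrently. Readout after 13–15 d greenhouse: visual 0–100 control rating against controls.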

[3] = system: barnyardgrass; assay: Test B pre-/postemergence herbicide test; assay type: in vivo, Echinochloa crus-galli; conditions: for pest or weed control at 500 g/ha: 500 g ai/ha
Method in brief: (§3)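 Seeds were planted and treated preemergence with compounds formulated in a non-phytotoxic solvent mixture containing surfactant, while plants at the 1- to 4-leaf stage (2 to 18 cm) received postemergence sprays. Flooded paddy plants were grown to the 2-leaf stage. After 13 to 15 days in a greenhouse, injury was visually rated 0–100 against untreated controls.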

[4] = system: pigweed; assay: Test B pre-/postemergence herbicide test; assay type: in vivo, Amaranthus retroflexus; conditions: for pest or weed control at 500 g/ha: 500 g ai/ha
Method in brief: as §2

[5] = system: small flower umbrella sedge; assay: Test B flooded paddy test; assay type: in vivo, Cyperus difformis; conditions: Cyperus difformis, 336 h, 1000 g ai/ha, scale 0 to 100 (0 no effect, 100 complete control), read-out: Sedge, Umbrella plant response rating
Method in brief: as §1

[6] = system: large crabgrass; assay: Test B pre-/postemergence herbicide test; assay type: in vivo, Digitaria sanguinalis; conditions: for pest or weed control at 500 g/ha: 500 g ai/ha
Method in brief: as §2

[7] = system: rice; assay: Test B flooded paddy test; assay type: in vivo, Oryza sativa; conditions: Oryza sativa, 336 h, 1000 g ai/ha, scale 0 to 100 (0 no effect, 100 complete control), read-out: Rice plant response rating
Method in brief: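 Scale 0–100: zero equals no visible effect, 100 complete control, judged by eye relative to controls. Timing: 13 to 15 days in greenhouse post-treatment. Growth stage at spraying: two leaves (paddy) or one to four leaves, 2–18 cm (postemergence).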

[8] = system: blackgrass; assay: Test B postemergence herbicide test; assay type: in vivo, Alopecurus myosuroides; conditions: Alopecurus myosuroides, post-emergence, 336 h, read-out: Blackgrass plant response rating
Method in brief: as §1

[9] = system: wild oat; assay: Test B postemergence herbicide test; assay type: in vivo, Avena fatua; conditions: Avena fatua, post-emergence, 336 h, read-out: Oat, Wild plant response rating
Method in brief: as §1

[10] = system: cocklebur; assay: Test B pre-/postemergence herbicide test; assay type: in vivo, Xanthium strumarium; conditions: for pest or weed control at 500 g/ha: 500 g ai/ha
Method in brief: as §3

[11] = system: lambsquarters; assay: Test B pre-/postemergence herbicide test; assay type: in vivo, Chenopodium album; conditions: for pest or weed control at 500 g/ha: 500 g ai/ha
Method in brief: as §2

[12] = system: ducksalad; assay: Test B flooded paddy test; assay type: in vivo, Heteranthera limosa; conditions: Heteranthera limosa, 336 h, 1000 g ai/ha, scale 0 to 100 (0 no effect, 100 complete control), read-out: Ducksalad plant response rating
Method in brief: as §1

[13] = system: Surinam grass; assay: Test B pre-/postemergence herbicide test; assay type: in vivo, Urochloa decumbens; conditions: for pest or weed control at 500 g/ha: 500 g ai/ha
Method in brief: as §2

[14] = system: giant foxtail; assay: Test B pre-/postemergence herbicide test; assay type: in vivo, Setaria faberi; conditions: for pest or weed control at 500 g/ha: 500 g ai/ha
Method in brief: as §2

[15] = system: velvetleaf; assay: Test B pre-/postemergence herbicide test; assay type: in vivo, Abutilon theophrasti
Method in brief: as §2

[16] = 125 g ai/ha, visual rating, scale 0 (no effect) to 100 (complete control)
[17] = postemergence, 500 g ai/ha, scale 0 to 100, 0 is no effect, 100 is complete control
[18] = 125 g ai/ha, 0 is no effect, 100 is complete control, preemergence

## CCNC(=O)c1ccc(F)c(NC(=O)C2CN(C(C)(C)C)N=C2CC)c1 (centres unmarked) [Compound 336, 1-(1,1-dimethylethyl)-3-ethyl-N-[5-[(ethylamino)carbonyl]-2-fluorophenyl]-4,5-dihydro-1H-pyrazole-4-carboxamide]
[1]; [16]
  plant injury at 125 g/ha: 0%
[1]; [17]
  plant injury at 500 g/ha: 10%
[2]; [18]
  Plant response rating (0 to 100 scale), Corn: 50
[2]; Zea mays, post-emergence, 125 g ai/ha, visual rating, scale 0 (no effect) to 100 (complete control), read-out: Corn plant response rating
  plant injury at 125 g/ha: 10%
[2]; Zea mays, post-emergence, postemergence, 500 g ai/ha, scale 0 to 100, 0 is no effect, 100 is complete control, read-out: Corn plant response rating
  plant injury at 500 g/ha: 20%
[2]; Zea mays, pre-emergence, 500 g ai/ha, visual rating, 0 = no effect, 100 = complete control
  Corn plant response rating (crop injury, 0 = no effect, 100 = complete kill) at 500 g/ha: 100%
[3]; [18]
  Plant response rating (0 to 100 scale), Barnyardgrass: 100
[3]; Echinochloa crus-galli, post-emergence, 125 g ai/ha, visual rating, scale 0 (no effect) to 100 (complete control), read-out: Barnyardgrass plant response rating
  pest or weed control at 125 g/ha: 10%
[3]; Echinochloa crus-galli, post-emergence, postemergence, scale 0 to 100, 0 is no effect, 100 is complete control, read-out: Barnyardgrass plant response rating
  pest or weed control at 500 g/ha: 30%
[3]; Echinochloa crus-galli, pre-emergence, visual rating, 0 = no effect, 100 = complete control, read-out: Plant response rating, Barnyardgrass
  pest or weed control at 500 g/ha: 100%
[4]; [18]
  Plant response rating (0 to 100 scale), Pigweed: 100
[4]; Amaranthus retroflexus, post-emergence, 336 h, 125 g ai/ha, visual rating, scale 0 (no effect) to 100 (complete control), read-out: Pigweed plant response rating
  pest or weed control at 125 g/ha: 60%
[4]; Amaranthus retroflexus, post-emergence, 336 h, postemergence, scale 0 to 100, 0 is no effect, 100 is complete control, read-out: Pigweed plant response rating
  pest or weed control at 500 g/ha: 70%
[4]; Amaranthus retroflexus, pre-emergence, 336 h, visual rating, 0 = no effect, 100 = complete control, read-out: Plant response rating, Pigweed
  pest or weed control at 500 g/ha: 100%
[5]
  pest or weed control at 1000 g/ha: 80%
[6]; [18]
  Plant response rating (0 to 100 scale), Crabgrass, Large: 90
[6]; Digitaria sanguinalis, post-emergence, 125 g ai/ha, visual rating, scale 0 (no effect) to 100 (complete control), read-out: Crabgrass, Large plant response rating
  pest or weed control at 125 g/ha: 20%
[6]; Digitaria sanguinalis, post-emergence, postemergence, scale 0 to 100, 0 is no effect, 100 is complete control, read-out: Crabgrass, Large plant response rating
  pest or weed control at 500 g/ha: 50%
[6]; Digitaria sanguinalis, pre-emergence, visual rating, 0 = no effect, 100 = complete control, read-out: Plant response rating, Crabgrass, Large
  pest or weed control at 500 g/ha: 100%
[7]
  plant injury at 1000 g/ha: 80%
[8]; [16]
  pest or weed control at 125 g/ha: 10%
[8]; [17]
  pest or weed control at 500 g/ha: 20%
[9]; [16]
  pest or weed control at 125 g/ha: 10%
[9]; [17]
  pest or weed control at 500 g/ha: 20%
[10]; [18]
  Plant response rating (0 to 100 scale), Cocklebur: 10
[10]; Xanthium strumarium, post-emergence, 125 g ai/ha, visual rating, scale 0 (no effect) to 100 (complete control), read-out: Cocklebur plant response rating
  pest or weed control at 125 g/ha: 0%
[10]; Xanthium strumarium, post-emergence, postemergence, scale 0 to 100, 0 is no effect, 100 is complete control, read-out: Cocklebur plant response rating
  pest or weed control at 500 g/ha: 50%
[10]; Xanthium strumarium, pre-emergence, visual rating, 0 = no effect, 100 = complete control, read-out: Plant response rating, Cocklebur
  pest or weed control at 500 g/ha: 40%
[11]; [18]
  Plant response rating (0 to 100 scale), Lambsquarters: 90
[11]; Chenopodium album, post-emergence, 336 h, 125 g ai/ha, visual rating, scale 0 (no effect) to 100 (complete control), read-out: Lambsquarters plant response rating
  pest or weed control at 125 g/ha: 60%
[11]; Chenopodium album, post-emergence, 336 h, postemergence, scale 0 to 100, 0 is no effect, 100 is complete control, read-out: Lambsquarters plant response rating
  pest or weed control at 500 g/ha: 90%
[11]; Chenopodium album, pre-emergence, 336 h, visual rating, 0 = no effect, 100 = complete control, read-out: Plant response rating, Lambsquarters
  pest or weed control at 500 g/ha: 100%
[12]
  pest or weed control at 1000 g/ha: 90%
[13]; [18]
  Plant response rating (0 to 100 scale), Surinam Grass: 90
[13]; Urochloa decumbens, post-emergence, 125 g ai/ha, visual rating, scale 0 (no effect) to 100 (complete control), read-out: Surinam Grass plant response rating
  pest or weed control at 125 g/ha: 20%
[13]; Urochloa decumbens, post-emergence, postemergence, scale 0 to 100, 0 is no effect, 100 is complete control, read-out: Surinam Grass plant response rating
  pest or weed control at 500 g/ha: 20%
[13]; Urochloa decumbens, pre-emergence, visual rating, 0 = no effect, 100 = complete control, read-out: Plant response rating, Surinam Grass
  pest or weed control at 500 g/ha: 100%
[14]; [18]
  Plant response rating (0 to 100 scale), Foxtail, Giant: 60
[14]; Setaria faberi, post-emergence, 336 h, 125 g ai/ha, visual rating, scale 0 (no effect) to 100 (complete control), read-out: Foxtail, Giant plant response rating
  pest or weed control at 125 g/ha: 20%
[14]; Setaria faberi, post-emergence, 336 h, postemergence, scale 0 to 100, 0 is no effect, 100 is complete control, read-out: Foxtail, Giant plant response rating
  pest or weed control at 500 g/ha: 40%
[14]; Setaria faberi, pre-emergence, 336 h, visual rating, 0 = no effect, 100 = complete control, read-out: Plant response rating, Foxtail, Giant
  pest or weed control at 500 g/ha: 100%
[15]; [18]
  Plant response rating (0 to 100 scale), Velvetleaf: 30
[15]; Abutilon theophrasti, post-emergence, 336 h, 125 g ai/ha, visual rating, scale 0 (no effect) to 100 (complete control), read-out: Velvetleaf plant response rating
  pest or weed control at 125 g/ha: 20%
[15]; Abutilon theophrasti, post-emergence, 336 h, postemergence, 500 g ai/ha, scale 0 to 100, 0 is no effect, 100 is complete control, read-out: Velvetleaf plant response rating
  pest or weed control at 500 g/ha: 30%
